Assay results: patent US11998610B2, “Conjugates and methods of using the same” (Flagship Pioneering Innovations V, Inc., priority 2018, dated 2024)
Non-standard residues stand in square brackets, D forms with d. Residues, ends and D or L forms follow the SMILES beside them. *: point of attachment. Butyryl = CCCC(=O)*

How the values were obtained:
[1] = In vitro Colonic Material Stability Assay; type: in vitro ADME; settings: for Assay 3 (% Remaining at 24 h): colonic material slurry, anaerobic, 1 or 10 μM
Experimental: Assay 3 In vitro Colonic Material Stability Assay. This assay was used to assess the stability of an acylated active agent in a large intestine. All experiments were performed in an anaerobic chamber containing 90% nitrogen, 5% hydrogen and 5% carbon dioxide. Colonic material was resuspended as a slurry (15% w/v final concentration) in pre-reduced, anaerobically sterilized dilution blanks (Anaerobe Systems AS-908). The colonic material was then inoculated into 96 well plates containing YCFAC media (Anaerobe Systems AS-680) or other suitable media (6.7 μL slurry into 1 mL total media). Compounds or groups of compounds were added to each individual well to reach a final analyte concentration of 1 or 10 μM, and the material was mixed by pipetting. Sample was removed after set timepoints (0, 120, 240, 480, 1440, 2880 minutes after initiation of the assay), quenched with acetonitrile containing internal standard, and analyzed by LC/MS.

[2] = Stability of conjugates in Simulated Intestinal Fluid (SIF); type: in vitro ADME; settings: simulated intestinal fluid pH 6.7 with pancreatin, 1 μM, 37° C.
Experimental: Assay 2. Stability of conjugates in Simulated Intestinal Fluid (SIF). This assay was used to assess the stability of a conjugate in a small intestine. Phosphate buffer was prepared by dissolving 0.42 g of sodium hydroxide pellets and 3.95 g of monobasic sodium phosphate monohydrate and 6.19 g of sodium chloride in ultrapure water (MilliQ®, Millipore Sigma, Darmstadt, Germany). The pH was adjusted to 6.7 using aq. HCl and aq. NaOH, as necessary, and the solution was diluted with ultrapure water to produce 1 L of the pH 6.7 buffer. 112 mg FaSSIF powder (Biorelevant™, London, UK) was dissolved in 50 mL of the pH 6.7 buffer. 2 to 3 mL of the resulting solution were then added to 500 mg pancreatin (Millipore Sigma, Darmstadt, Germany). The resulting mixture was agitated by finger tapping the vessel containing the mixture until milky suspension formed. At this time, the remainder of the 50 mL FaSSiF/pH 6.7 buffer solution was added. The resulting suspension was flipped upside down 10 times to produce SIF, which was used fresh. Test compounds were dissolved in DMSO stock to 1 mM. An aliquot of the DMSO stock solution was removed and diluted in the SIF media in 15 mL falcon tubes to produce a mixture with a tested compound concentration of 1 μM. A 1 mL aliquot was immediately removed and diluted once with 1 volume of acetonitrile for T0 timepoint. The mixture was sealed and agitated at 37° C. in an incubator. Aliquots (1 mL) were removed at regular intervals and immediately quenched by the addition of 1 volume of acetonitrile. The resulting samples were analyzed by LC/MS to determine degradation rates

E. coli BL21(DE3) = test: Cell-based assay with ClbP with LCMS, ClbP negative strain; settings: 10 μM compound, 37° C., 20 h
Experimental: (§1) This example is representative of the methods described in Example 97. ClbP was tested for its ability to activate compounds. […] Each of these three strains was struck out onto an appropriate solid media such as LB agar or BHI agar. The bacteria were then grown aerobically overnight at 37° C.
(§2) A single colony was isolated from the plate and inoculated into 10 mL LB. The liquid cultures were grown overnight aerobically at 37° C. with rocking on a nutator.
(§3) The saturated E. coli cultures were transferred into a biosafety cabinet. 5 μL of each culture was inoculated into fresh LB broth (200 μL total, 1:40 (v/v) dilution of the overnight culture), and the tested compound was added to a final concentration of 10 μM. To establish the native stability of the compound in media alone, the compound was also added to uninoculated media at a final concentration of 10 μM. Each compound was tested in duplicate with each strain or the media-alone incubation. The plate was sealed and incubated aerobically on a nutator at 37° C. for 20 h.
(§4) After 20 h, the reactions were stopped by addition of 200 μL acetonitrile. The contents of each well were mixed, and then the plate was centrifuged (4,000 rpm, 10 min). The plate was diluted serially to a final dilution of 1:100 first with Acetonitrile (10× dilution) and then with (4:1) Mobile Phase A-20 mM ammonium formate+water:Mobile Phase B-Isopropanol:Methanol:Water (4:4:2)+20 mM ammonium formate (10× dilution).
(§5) The amount of each remaining parent compound in each incubation was quantified by LC-MS analysis, with multiple-reaction monitoring targeting transitions specific to each parent compound.
(§6) The amount of compound present in the media-alone condition was normalized to 100%. The amount of parent compound present in the reaction with the ClbP-encoding E. coli (E. coli CFT073 ATCC 700928 and/or E. coli Nissle 1917) was compared to the amount present in the media-alone and expressed as a percent. Likewise, the amount of parent compound present in the reaction with the negative control E. coli BL21(DE3) was compared to the amount present in the media-alone and expressed as a percent.
(§7) In an ideal case, the amount of residual starting material in the reaction(s) with ClbP-encoding E. coli was <25% of the amount in the E. coli BL21(DE3) and media-alone conditions. In an acceptable case, the amount of residual starting material in the reaction(s) with ClbP-encoding E. coli was 25-75% of the amount in the E. coli BL21(DE3) and media-alone conditions. In a non-preferred case, the amount of residual starting material in the reaction(s) with ClbP-encoding E. coli was >75% of the amount in the E. coli BL21(DE3) and media-alone conditions.

[3] = tested on: E. coli CFT073 ATCC 700928 and/or E. coli Nissle 1917; test: Cell-based assay with ClbP with LCMS, ClbP positive strain; settings: ClbP-encoding E. coli, 10 μM compound, 37° C., 20 h
Experimental: as §1, §2, §3, §4, §5, §6, §7

[4] = Stability of conjugates in Simulated Gastric Fluid (SGF); type: in vitro ADME; settings: simulated gastric fluid pH 1.6 with pepsin, 1 μM, 37° C.
Experimental: Assay 1. Stability of conjugates in Simulated Gastric Fluid (SGF). This assay was used to assess the stability of a conjugate in a stomach. Medium was prepared by dissolving 2 g of sodium chloride in 0.6 L in ultrapure water (MilliQ®, Millipore Sigma, Darmstadt, Germany). The pH was adjusted to 1.6 with 1N hydrochloric acid, and the volume was then adjusted to 1 L with purified water. 60 mg FaSSIF powder (Biorelevant™, London, UK) were dissolved in 500 mL buffer (above). Pepsin was added (0.1 mg/mL) (Millipore Sigma, Darmstadt, Germany), and the solution was stirred. The resulting SGF media were used fresh for each experiment. Test compounds were dissolved in DMSO stock to 1 mM. An aliquot of the DMSO stock solution was removed and diluted in the SGF Media in 15 mL falcon tubes to generate a total compound concentration of 1 μM. A 1 mL aliquot was immediately removed and diluted once with 1 volume of acetonitrile for T0 timepoint. The mixture was sealed and mixed at 37° C. in an incubator. Aliquots (1 mL) were removed at regular intervals and immediately quenched by the addition of 1 volume of acetonitrile. The resulting samples were analyzed by LC/MS to determine degradation rates in SGF.

SMILES | Assay 3 (% Remaining at 24 h) [1] | Selective delivery to the colon (conclusion from Table 2) ([1]; from SGF, SIF and colonic material stability) | Assay 2 (SIF) (% @ Remaining 4 hours) [2] | % Remaining in ClbP Negative Relative to Media-Only (E. coli BL21(DE3)) | % Remaining in ClbP Positve Relative to Media-Only [3] | Assay 1 (SGF) (% Remaining @ 1 hours) [4]
CCCC(=O)N[C@H](CC(N)=O)C(=O)N[C@@H](C)C(=O)OC [Example 12, Methyl butyryl-D-asparaginyl-L-alaninate] (Butyryl-[dN]-Ala-OMe) | A (<25% of the tested compound remaining) | can be selectively delivered to the colon | C (>75% of the tested compound remaining) | + (between 25-75% compound remaining in the 20 μM WT ClbP reaction relative to the no-enzyme control) |  | 
CCCC(=O)N[C@H](CC(N)=O)C(=O)N[C@@H](C)CCC(=O)Oc1ccccc1 [Example 25, Phenyl (S)-4-((R)-4-amino-2-butyramido-4-oxobutanamido)pentanoate] | B (25-75% of the tested compound remaining) |  |  | − (>75% compound remaining in the 20 μM WT ClbP reaction relative to the no-enzyme control) | + (between 25-75% compound remaining in the 20 μM WT ClbP reaction relative to the no-enzyme control) | C (>75% of the tested compound remaining)
CCCCCCCCCCCCCC(=O)N[C@H](CC(N)=O)C(=O)NCCC(C)(C)C(=O)OC [Example 34, Methyl (R)-4-(4-amino-4-oxo-2-tetradecanamidobutanamido)-2,2-dimethylbutanoate] | C (>75% of the tested compound remaining) |  |  | − (>75% compound remaining in the 20 μM WT ClbP reaction relative to the no-enzyme control) | + (between 25-75% compound remaining in the 20 μM WT ClbP reaction relative to the no-enzyme control) | C (>75% of the tested compound remaining)
CCCCCCCC(=O)N[C@H](CC(N)=O)C(=O)N[C@@H](C)CNC(=O)OC [Example 45, Methyl ((S)-2-((R)-4-amino-2-octanamido-4-oxobutanamido)propyl)carbamate] | B (25-75% of the tested compound remaining) |  |  | − (>75% compound remaining in the 20 μM WT ClbP reaction relative to the no-enzyme control) | + (between 25-75% compound remaining in the 20 μM WT ClbP reaction relative to the no-enzyme control) | 
CCCCCCOC(=O)N[C@H](CC(N)=O)C(=O)N[C@@H](C)C(=O)OC [Example 52, Methyl ((hexyloxy)carbonyl)-D-asparaginyl-L-alaninate] | B (25-75% of the tested compound remaining) |  |  | ++ (<25% compound remaining in the 20 μM WT ClbP reaction relative to the control) | ++ (<25% compound remaining in the 20 μM WT ClbP reaction relative to the control) | 
CCCCCCCC(=O)N[C@H](CC(N)=O)C(=O)NCCNC(=O)n1cc(F)c(=O)[nH]c1=O [Example 55, (R)—N1-(2-(5-fluoro-2,4-dioxo-1,2,3,4-tetrahydropyrimidine-1-carboxamido)ethyl)-2-octanamidosuccinamide] | A (<25% of the tested compound remaining) |  | A (<25% of the tested compound remaining) |  |  | C (>75% of the tested compound remaining)
CCCCCCCCCCCCOC(=O)N[C@H](CC(N)=O)C(=O)N[C@@H](C)C(=O)OC [Example 59, Methyl ((dodecyloxy)carbonyl)-D-asparaginyl-L-alaninate] | C (>75% of the tested compound remaining) |  |  | ++ (<25% compound remaining in the 20 μM WT ClbP reaction relative to the control) | ++ (<25% compound remaining in the 20 μM WT ClbP reaction relative to the control) | 
CCCCCCCCCCCCNC(=O)N[C@H](CC(N)=O)C(=O)N[C@@H](C)C(=O)OC [Example 60, Methyl (dodecylcarbamoyl)-D-asparaginyl-L-alaninate] | C (>75% of the tested compound remaining) |  |  | + (between 25-75% compound remaining in the 20 μM WT ClbP reaction relative to the no-enzyme control) | + (between 25-75% compound remaining in the 20 μM WT ClbP reaction relative to the no-enzyme control) | 
CCCCCCCC(=O)N[C@H](CC(N)=O)C(=O)NCCCC(=O)Oc1ccc2c(C)cc(=O)oc2c1 [Example 67, 4-methyl-2-oxo-2H-chromen-7-yl (R)-4-(4-amino-2-octanamido-4-oxobutanamido)butanoate] |  |  | A (<25% of the tested compound remaining) |  |  | C (>75% of the tested compound remaining)
CCCCCCCC(=O)N[C@H](CC(N)=O)C(=O)NCCNC(=O)Oc1ccc2c(C)cc(=O)oc2c1 [Example 69, 4-methyl-2-oxo-2H-chromen-7-yl (R)-(2-(4-amino-2-octanamido-4-oxobutanamido)ethyl)carbamate] | A (<25% of the tested compound remaining) |  | A (<25% of the tested compound remaining) |  |  | C (>75% of the tested compound remaining)
